Data on one molecule can be found in patent US20240099973A1, “EXTRACELLULAR VESICLE COMPOSITIONS” (LONZA SALES AG, priority 2019, published 2024).

Series [1] in a line: Intratumoral concentration of STING agonist in B16-F10 melanoma tumors. It counts as in vivo, C57BL/6 mice. The note with it: 0.3 μg of CL656 intratumoral dose; after about 360 minutes. How it is done: The intratumoral concentration of STING agonist in Buffer B over time was investigated.
Briefly, B16-F10 melanoma cells were subcutaneously transplanted into C57BL/6 mice. When dermal tumors were visible, each animal received an intratumoral dose of either free STING agonist (0.3 μg of CL656) or exosome-encapsulated STING agonist (0.3 μg of CL656). Intratumoral concentration of free STING agonist and exosome-encapsulated STING agonist was measured at 5, 30, 120, 360, 1440, and 2880 minutes after injection. […] Further shown in FIG. 3D, the concentration of exosome-encapsulated STING agonist fell slowly to about 100 nM at 1440 minutes. Thereafter, the concentration of exosome-encapsulated STING agonist was steady at about 100 nM until the last measurement was taken at 2880 minutes.

In the next series the test system is IFNβ mRNA. The series is described as follows: IFNβ mRNA expression in liver after intravenous administration. It counts as in vivo, C57BL/6 mice. The note with it: 20 μg intravenously; 4 hours. Here is the method: The effect of administration of exosomes containing STING agonist CL656 on gene expression in C57BL/6 liver was investigated.
After thawing, exosomes in buffer B composition containing STING agonist CL656 was stored at 4° C. and 22° C. for 24 h or 72 h as described in Example 5. PBS, CL656 (20 μg), exosomes, or exosomes in buffer B containing STING agonist CL656 that incubated as described above (600 ng of CL656 per mouse) were administered into C57BL/6 mice intravenously. As a control, exosomes in buffer B composition containing STING agonist CL656 that were stored at −80° C. (6 ng, 60 ng, and 600 ng per mouse) were administered (considered as 0 h). After 4 hours, mice were euthanized and liver was collected. Total RNA was isolated from liver by using RNeasy Lipid Mini Kit (Qiagen) and expression level of IFNβ mRNA was determined by RT-qPCR. Relative expression was normalized against housekeeping gene RPS13. FIG. 3C provides the results from the liver study.

Consider `Nc1ncnc2c1ncn2[C@@H]1O[C@@H]2COP(=O)(S)O[C@H]3[C@@H](F)[C@H](n4cnc5c(=O)[nH]cnc54)O[C@@H]3COP(O)(=S)O[C@H]2[C@H]1F` (some centres unmarked) [CL656], for which the intratumoral concentration entry in series [1] is recorded as “not detectable”. Further, the “IFNβ mRNA in liver (RT-qPCR, normalized against RPS13)” value in the series with IFNβ mRNA is given as “low level”.
